This is an account of results in patent publication US20120065210A1, “SUBSTITUTED HEXAHYDROPYRROLO[1,2-C]IMIDAZOLONES” (priority 2010, published 2012).

interaction between p53 and MDM2 proteins (recombinant GST-tagged MDM2, p53 peptide), sequence (Q00987 whole entry): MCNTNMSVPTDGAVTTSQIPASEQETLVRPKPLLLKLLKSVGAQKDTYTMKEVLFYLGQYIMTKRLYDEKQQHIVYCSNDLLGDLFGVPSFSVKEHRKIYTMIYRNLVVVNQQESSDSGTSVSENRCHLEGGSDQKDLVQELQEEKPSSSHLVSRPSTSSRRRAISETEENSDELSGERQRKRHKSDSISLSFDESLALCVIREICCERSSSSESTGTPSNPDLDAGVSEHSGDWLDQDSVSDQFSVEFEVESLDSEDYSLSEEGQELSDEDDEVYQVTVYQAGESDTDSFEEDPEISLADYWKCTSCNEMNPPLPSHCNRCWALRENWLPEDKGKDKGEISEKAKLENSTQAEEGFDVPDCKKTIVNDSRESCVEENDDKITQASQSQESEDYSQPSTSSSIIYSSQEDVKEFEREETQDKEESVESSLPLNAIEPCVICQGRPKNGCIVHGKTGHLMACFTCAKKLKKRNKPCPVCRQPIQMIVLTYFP

In this assay the target is interaction between p53 and MDM2 proteins (recombinant GST-tagged MDM2, p53 peptide) (Homo sapiens, UniProt Q00987). The assay is described as follows: HTRF assay of inhibition of the p53-MDM2 interaction (GST-MDM2 / biotinylated p53 peptide). The note with it: bsa: 0.02%. It counts as binding. Here is the method:
The ability of the compounds to inhibit the interaction between p53 and MDM2 proteins was measured by an HTRF (homogeneous time-resolved fluorescence) assay in which recombinant GST-tagged MDM2 binds to a peptide that resembles the MDM2-interacting region of p53. Binding of GST-MDM2 protein and p53-peptide (biotinylated on its N-terminal end) is registered by the FRET (fluorescence resonance energy transfer) between Europium (Eu)-labeled anti-GST antibody and streptavidin-conjugated Allophycocyanin (APC).
Add 10 uL diluted compounds (1:5 dilution in reaction buffer) to each well, mix by shaking Add 20 uL biotinylated p53 peptide (180 nM working solution) in reaction buffer to each well and mix on shaker. Incubate at 37° C. for 1 h. Add 20 uL streptavidin-APC and Eu-anti-GST antibody mixture (6 nM Eu-anti-GST and 60 nM streptavidin-APC working solution) in TBS buffer with 0.2% BSA, shake at room temperature for 30 minutes and read using a TRF-capable plate reader at
665 and 615 nm (Victor 5, Perkin ElmerWallac), If not specified, the reagents were purchased from Sigma Chemical Co.
Consider `CC(C)(C)C[C@@H]1N2[C@H](CC3CCCCC3)N(c3ccc(C(=O)O)cc3)C(=O)[C@H]2[C@H](c2cccc(Cl)c2F)[C@@]1(C#N)c1ccc(Cl)cc1F` (racemic) [Example 35, rac-4-[(3S,5S,6R,7S,7aR)-7-(3-chloro-2-fluoro-phenyl)-6-(4-chloro-2-fluoro-phenyl)-6-cyano-3-cyclohexylmethyl-5-(2,2-dimethyl-propyl)-1-oxo-tetrahydro-pyrrolo[1,2-c]imidazol-2-yl]-benzoic acid], for which the IC50 was 15 nM. Regarding `COc1cc(N2CN3[C@@H](CC(C)(C)C)[C@](C#N)(c4ccc(Cl)cc4F)[C@@H](c4cccc(Cl)c4F)[C@@H]3C2=O)ccc1C(=O)O` [Example 1, 4-[(5S,6R,7S,7aR)-7-(3-chloro-2-fluoro-phenyl)-6-(4-chloro-2-fluoro-phenyl)-6-cyano-5-(2,2-dimethyl-propyl)-1-oxo-tetrahydro-pyrrolo[1,2-c]imidazol-2-yl]-2-methoxy-benzoic acid], the half-inhibitory concentration (IC50) came to 8 nM. With `CC(C)(C)C[C@@H]1N2CN(c3ccc(C(=O)O)cc3)C(=O)[C@H]2[C@H](c2cccc(Cl)c2F)[C@@]1(C#N)c1ccc(Cl)cc1F` [Example 2, 4-[(5S,6R,7S,7aR)-7-(3-chloro-2-fluoro-phenyl)-6-(4-chloro-2-fluoro-phenyl)-6-cyano-5-(2,2-dimethyl-propyl)-1-oxo-tetrahydro-pyrrolo[1,2-c]imidazol-2-yl]-benzoic acid], the IC50 stood at 8 nM. Turning to `COc1cc(C(=O)O)ccc1N1CN2[C@@H](CC(C)(C)C)[C@](C#N)(c3ccc(Cl)cc3F)[C@@H](c3cccc(Cl)c3F)[C@@H]2C1=O` [Example 3, 4-[(5S,6R,7S,7aR)-7-(3-chloro-2-fluoro-phenyl)-6-(4-chloro-2-fluoro-phenyl)-6-cyano-5-(2,2-dimethyl-propyl)-1-oxo-tetrahydro-pyrrolo[1,2-c]imidazol-2-yl]-3-methoxy-benzoic acid], the IC50 is 13 nM.

In the case of `CC(C)(C)C[C@@H]1N2CN(CC(=O)O)C(=O)[C@H]2[C@H](c2cccc(Cl)c2F)[C@@]1(C#N)c1ccc(Cl)cc1F` [Example 4, [(5S,6R,7S,7aR)-7-(3-chloro-2-fluoro-phenyl)-6-(4-chloro-2-fluoro-phenyl)-6-cyano-5-(2,2-dimethyl-propyl)-1-oxo-tetrahydro-pyrrolo[1,2-c]imidazol-2-yl]-acetic acid], the IC50 was 10 nM. For `CC(C)(C)C[C@@H]1N2CN(c3ccc(C(=O)O)cc3O)C(=O)[C@H]2[C@H](c2cccc(Cl)c2F)[C@@]1(C#N)c1ccc(Cl)cc1F` [Example 6, 4-[(5S,6R,7S,7aR)-7-(3-chloro-2-fluoro-phenyl)-6-(4-chloro-2-fluoro-phenyl)-6-cyano-5-(2,2-dimethyl-propyl)-1-oxo-tetrahydro-pyrrolo[1,2-c]imidazol-2-yl]-3-hydroxy-benzoic acid], the concentration for half-maximal inhibition (IC50) was determined as 13 nM. In the case of `CC(C)(C)C[C@@H]1N2CN(c3ccc(C(=O)O)c(C(F)(F)F)c3)C(=O)[C@H]2[C@H](c2cccc(Cl)c2F)[C@@]1(C#N)c1ccc(Cl)cc1F` [Example 7, 4-[(5S,6R,7S,7aR)-7-(3-chloro-2-fluoro-phenyl)-6-(4-chloro-2-fluoro-phenyl)-6-cyano-5-(2,2-dimethyl-propyl)-1-oxo-tetrahydro-pyrrolo[1,2-c]imidazol-2-yl]-2-trifluoromethyl-benzoic acid], the IC50 is 21 nM. On to `C=CCC[C@@H]1N(c2ccc(C(=O)O)c(OC)c2)C(=O)[C@H]2[C@H](c3cccc(Cl)c3F)[C@@](C#N)(c3ccc(Cl)cc3F)[C@H](CC(C)(C)C)N12` [Example 41, 4-[(3S,5S,6R,7S,7aR)-3-but-3-enyl-7-(3-chloro-2-fluoro-phenyl)-6-(4-chloro-2-fluoro-phenyl)-6-cyano-5-(2,2-dimethyl-propyl)-1-oxo-tetrahydro-pyrrolo[1,2-c]imidazol-2-yl]-2-methoxy-benzoic acid], for which the IC50 amounted to 9 nM.
